# Patent US4988697A, “Fungicidal compositions and method” (Merck & Co., Inc., priority 1989, dated 1991)
# How the values were obtained:
# Assay type in all cases: cell-based
# A. niger = assay: MIC against fungal panel, A. niger; details: Aspergillus niger, read-out: MIC, Ketoconazole Alone
# Protocol: (§1) First the MIC for the β-lactone compound and the MIC for the ketoconazole were determined against an array of organisms. Thereafter, the effects on the MIC of adding 0.031, 0.125, 0.5 and 2 μg/ml of ketoconazole were determined.
# U. zeae = assay: MIC against fungal panel, U. zeae; details: read-out: MIC, Ketoconazole Alone
# Protocol: as §1
# C. neoformans = assay: MIC against fungal panel, C. neoformans; details: Cryptococcus neoformans, read-out: MIC, Ketoconazole Alone
# Protocol: as §1
# C. albicans (Y1055) = assay: MIC against fungal panel, C. albicans (Y1055); details: Candida albicans, read-out: MIC, Ketoconazole Alone
# Protocol: as §1
# F. oxysporium = assay: MIC against fungal panel, F. oxysporium; details: read-out: MIC, Ketoconazole Alone
# Protocol: as §1
# Candida albicans = assay: Synergistic and fungicidal effect on exponential phase cultures (CFU/ml over time); details: ketoconazole 1 μg/ml
# Protocol: Synergistic and fungicidal effects were determined by treating exponential phase Candida albicans cultures with β-Lactone at MIC and MFC levels and ketoconazole at 0.1 μg/ml or a 1 μg/ml alone or in combination. Exponential phase cultures were prepared by diluting an overnight culture 1:50 or 1:1000 in YNB/G. After incubating the diluted cells 7 or 17 hrs. at 37° C., the exponential phase cells were diluted in YNB/G to A600 =0.0004 u/ml to obtain 3000 cfu/ml.
# 10 microliters (μl) of β-lactone compound or ketoconazole prepared in DMSO was added to 1 ml of diluted exponential phase cells. The tubes were incubated at 37° C. at 250 rpm for 27 hours. Periodically, aliquots were diluted in 0.9% saline and plated on Sabouraud dextrose agar plates to determine the number of cfu/ml.
# C. albicans (Y1750) = assay: MIC against fungal panel, C. albicans (Y1750); details: Candida albicans, read-out: MIC, Ketoconazole Alone
# Protocol: as §1
# C. miyabeamis = assay: MIC against fungal panel, C. miyabeamis; details: read-out: MIC, Ketoconazole Alone
# Protocol: In a manner similar to that above described for effect against Candida albicans the synergistic effect of the combination of the β-lactone compound and ketoconazole against a fungal panel was determined by plating on potato dextrose agar.
# as §1
smiles,measurement,setting,value
"CC(=O)N1CCN(c2ccc(OC[C@H]3CO[C@](Cn4ccnc4)(c4ccc(Cl)cc4Cl)O3)cc2)CC1 (relative stereo) [Ketoconazole, cis-1-acetyl-4-[4-[[2-(2,4-dichlorophenyl)-2-(1H-imidazole-1-ylmethyl)-1,3-dioxolan-4-yl]methoxy]-phenyl]piperazine]",MIC,A. niger,> 2 mg/L
same,MIC,U. zeae,> 2 mg/L
same,MIC,C. neoformans,> 2 mg/L
same,MIC,C. albicans (Y1055),> 2 mg/L
same,MIC,F. oxysporium,> 2 mg/L
same,Fungal Growth,"Candida albicans; Table 1, 0 hours",2.95 × 10^3 CFU/ML
same,Fungal Growth,"Candida albicans; Table 1, 2 hours, β-lactone 2.5 μg/ml, alone or combined",5.1 × 10^3 CFU/ML
same,Fungal Growth,"Candida albicans; Table 1, 4.5 hours, β-lactone 2.5 μg/ml, alone or combined",1.09 × 10^4 CFU/ML
same,Fungal Growth,"Candida albicans; Table 1, 7 hours, β-lactone 2.5 μg/ml, alone or combined",2.40 × 10^4 CFU/ML
same,Fungal Growth,"Candida albicans; Table 1, 11 hours, β-lactone 2.5 μg/ml, alone or combined",6.90 × 10^4 CFU/ML
same,Fungal Growth,"Candida albicans; Table 1, 17 hours, β-lactone 2.5 μg/ml, alone or combined",1.36 × 10^5 CFU/ML
same,Fungal Growth,"Candida albicans; Table 1, 22 hours, β-lactone 2.5 μg/ml, alone or combined",3.30 × 10^5 CFU/ML
same,Fungal Growth,"Candida albicans; Table 1, 27 hours, β-lactone 2.5 μg/ml, alone or combined",7.20 × 10^5 CFU/ML
same,Fungal Growth,"Candida albicans; Table 2, 0 hours",2.95 × 10^3 CFU/ML
same,Fungal Growth,"Candida albicans; Table 2, 2 hours, β-lactone 10 μg/ml, alone or combined",5.1 × 10^3 CFU/ML
same,Fungal Growth,"Candida albicans; Table 2, 4.5 hours, β-lactone 10 μg/ml, alone or combined",1.09 × 10^4 CFU/ML
same,Fungal Growth,"Candida albicans; Table 2, 7 hours, β-lactone 10 μg/ml, alone or combined",2.40 × 10^4 CFU/ML
same,Fungal Growth,"Candida albicans; Table 2, 11 hours, β-lactone 10 μg/ml, alone or combined",6.90 × 10^4 CFU/ML
same,Fungal Growth,"Candida albicans; Table 2, 17 hours, β-lactone 10 μg/ml, alone or combined",1.36 × 10^5 CFU/ML
same,Fungal Growth,"Candida albicans; Table 2, 22 hours, β-lactone 10 μg/ml, alone or combined",3.30 × 10^5 CFU/ML
same,Fungal Growth,"Candida albicans; Table 2, 27 hours, β-lactone 10 μg/ml, alone or combined",7.20 × 10^5 CFU/ML
same,MIC,C. albicans (Y1750),> 2 mg/L
same,MIC,C. miyabeamis,2 mg/L
